Data: patent publication US20250115654A1, “PHARMACEUTICAL COMPOSITION OF GLP-1 RECEPTOR AND GIP RECEPTOR DUAL AGONIST, AND USE THEREOF” (FUJIAN SHENGDI PHARMACEUTICAL CO., LTD., priority 2021, published 2025)
Marks after values point to notes of the source that are not given here. Numbered stars: 1 amine (or outer) side, 2 acyl side, 3 side chain; on linkers, the order of the positions; unused ones are H or OH. Square brackets hold non-standard residues; d marks the D form. Side chains are listed from the residue outwards. Peptide text beside a SMILES is read from it. * marks the point of attachment. C20 diacid = O=C(O)CCCCCCCCCCCCCCCCCCC(=O)*; γGlu = O=C(O)[C@H](CCC(=O)[*:2])N[*:1]; AEEA = NCCOCCOCC(=O)O; Aib = CC(C)(N)C(=O)O

Key:
[1] = system: diet-induced-obesity mice; assay: Viscera/brain ratio for fat mass in different parts of diet-induced obesity mice; format: in vivo, C57BL/6 mice
Experimental: High-fat food-induced-obesity male C57BL/6 mice (weighing 35-55 g, aged 10-12 weeks, purchased from Shanghai Jiesijie Laboratory Animal Co., Ltd.) were tested. […] According to the experimental design, the body weight of each mouse was measured and recorded on day 0, day 3, day 6, and so on to day 27, the average body weight of each group of mice was calculated, and body weight change curves were plotted by taking the body weight on the first day as the standard. At the end, the fat and other visceral organs of each part of the mice were taken out and weighed, and the viscera/brain ratio for fat in each part of each mouse was calculated. The effect of the drug on the fat was determined by comparing the change in the viscera/brain ratio for fat of different parts of each group of mice.

[2] = system: diet-induced-obesity mice; assay: Body weight of diet-induced-obesity mice, subcutaneous administration once every 3 days; format: in vivo, C57BL/6 mice

SMILES: CC[C@H](C)[C@H](NC(=O)[C@H](CCCCN)NC(=O)[C@H](CCC(=O)O)NC(=O)[C@H](CCCCNC(=O)COCCOCCNC(=O)COCCOCCNC(=O)CC[C@H](NC(=O)CCCCCCCCCCCCCCCCCCC(=O)O)C(=O)O)NC(=O)[C@H](Cc1ccc(O)cc1)NC(=O)[C@@H](NC(=O)[C@H](CO)NC(=O)[C@H](Cc1ccc(O)cc1)NC(=O)[C@H](CC(=O)O)NC(=O)[C@H](CO)NC(=O)[C@@H](NC(=O)[C@H](Cc1ccccc1)NC(=O)[C@@H](NC(=O)CNC(=O)[C@H](CCC(=O)O)NC(=O)C(C)(C)NC(=O)[C@@H](N)Cc1ccc(O)cc1)[C@@H](C)O)[C@@H](C)O)[C@@H](C)CC)C(=O)N[C@@H](C)C(=O)N[C@@H](C)C(=O)N[C@@H](CCC(N)=O)C(=O)N[C@@H](CCC(=O)O)C(=O)N[C@@H](Cc1ccccc1)C(=O)N[C@H](C(=O)N[C@@H](CC(N)=O)C(=O)N[C@@H](Cc1c[nH]c2ccccc12)C(=O)N[C@@H](CC(C)C)C(=O)N[C@@H](CC(C)C)C(=O)N[C@@H](C)C(=O)NCC(=O)NCC(=O)N1CCC[C@H]1C(=O)N[C@@H](CO)C(=O)N[C@@H](CO)C(=O)NCC(=O)N[C@@H](C)C(=O)N1CCC[C@H]1C(=O)N1CCC[C@H]1C(=O)N1CCC[C@H]1C(=O)N[C@@H](CO)C(N)=O)C(C)C [Compound 18#] (H-Y[Aib]EGTFTSDYSIYK([AEEA-AEEA-γGlu-C20 diacid])EKIAAQEFVNWLLAGGPSSGAPPPS-NH2)
- viscera/brain ratio, Epididymal fat ([1]; 3 nmol/kg): 254.6 ± 113.4 %
- viscera/brain ratio, Inguinal fat ([1]; 3 nmol/kg): 281.5 ± 140.1 %
- viscera/brain ratio, Mesenteric fat ([1]; 3 nmol/kg): 84.8 ± 41.3 %
- viscera/brain ratio, Perirenal fat ([1]; 3 nmol/kg): 159.2 ± 87.6 %
- viscera/brain ratio, Scapular fat ([1]; 3 nmol/kg): 48 ± 15.3%
- viscera/brain ratio, Subcutaneous fat ([1]; 3 nmol/kg): 120 ± 62 %
- viscera/brain ratio, Epididymal fat ([1]; 10 nmol/kg): 211.7 ± 80.7 %
- viscera/brain ratio, Inguinal fat ([1]; 10 nmol/kg): 194.4 ± 86.2 %
- viscera/brain ratio, Mesenteric fat ([1]; 10 nmol/kg): 53.3 ± 14.6 %
- viscera/brain ratio, Perirenal fat ([1]; 10 nmol/kg): 109.4 ± 57.1 %
- viscera/brain ratio, Scapular fat ([1]; 10 nmol/kg): 42.5 ± 17^ %
- viscera/brain ratio, Subcutaneous fat ([1]; 10 nmol/kg): 122 ± 73.2 %
- viscera/brain ratio, Epididymal fat ([1]; 100 nmol/kg): 102.9 ± 32.2 %
- viscera/brain ratio, Inguinal fat ([1]; 100 nmol/kg): 92 ± 34.5 %
- viscera/brain ratio, Mesenteric fat ([1]; 100 nmol/kg): 27.4 ± 11.1 %
- viscera/brain ratio, Perirenal fat ([1]; 100 nmol/kg): 46.6 ± 18.2 %
- viscera/brain ratio, Scapular fat ([1]; 100 nmol/kg): 32.3 ± 7%
- viscera/brain ratio, Subcutaneous fat ([1]; 100 nmol/kg): 57.1 ± 21.2 %
- content of fat of each part (except scapular fat) relative to placebo group ([1]; all dose test groups): significantly reduced
- rate of change in body weight ([2]; 3 nmol/kg, day 0 (before administration)): 0%
- rate of change in body weight ([2]; 3 nmol/kg, day 1 after administration): −5 ± 0.6%
- rate of change in body weight ([2]; 3 nmol/kg, day 2 after administration): −6.3 ± 1 ^ %
- rate of change in body weight ([2]; 3 nmol/kg, day 3 after administration): −5.8 ± 1.9%
- rate of change in body weight ([2]; 3 nmol/kg, day 4 after administration): −9.1 ± 2.1 %
- rate of change in body weight ([2]; 3 nmol/kg, day 5 after administration): −10.3 ± 3.2 %
- rate of change in body weight ([2]; 3 nmol/kg, day 6 after administration): −10 ± 4.4 %
- rate of change in body weight ([2]; 3 nmol/kg, day 7 after administration): −13 ± 5.3 %
- rate of change in body weight ([2]; 3 nmol/kg, day 8 after administration): −13.9 ± 6.1 %
- rate of change in body weight ([2]; 3 nmol/kg, day 9 after administration): −13.9 ± 7.4 %
- rate of change in body weight ([2]; 3 nmol/kg, day 10 after administration): −16.6 ± 7.8 %
- rate of change in body weight ([2]; 3 nmol/kg, day 11 after administration): −16.4 ± 8.2 %
- rate of change in body weight ([2]; 3 nmol/kg, day 12 after administration): −15.7 ± 8.6 %
- rate of change in body weight ([2]; 3 nmol/kg, day 13 after administration): −18.2 ± 8.2 %
- rate of change in body weight ([2]; 3 nmol/kg, day 14 after administration): −17.1 ± 7.2 %
- rate of change in body weight ([2]; 3 nmol/kg, day 15 after administration): −15.7 ± 7.4 %
- rate of change in body weight ([2]; 3 nmol/kg, day 16 after administration): −18.6 ± 7 %
- rate of change in body weight ([2]; 3 nmol/kg, day 17 after administration): −18.3 ± 7***^ %
- rate of change in body weight ([2]; 3 nmol/kg, day 18 after administration): −17.9 ± 7.1 %
- rate of change in body weight ([2]; 3 nmol/kg, day 19 after administration): −20.5 ± 7.5 %
- rate of change in body weight ([2]; 3 nmol/kg, day 20 after administration): −19.8 ± 7.4 %
- rate of change in body weight ([2]; 3 nmol/kg, day 21 after administration): −17.8 ± 7.3 %
- rate of change in body weight ([2]; 3 nmol/kg, day 22 after administration): −19.3 ± 8.2 %
- rate of change in body weight ([2]; 3 nmol/kg, day 23 after administration): −19.1 ± 7.6 %
- rate of change in body weight ([2]; 3 nmol/kg, day 24 after administration): −17.3 ± 7.4 %
- rate of change in body weight ([2]; 3 nmol/kg, day 25 after administration): −19.9 ± 7.6 %
- rate of change in body weight ([2]; 3 nmol/kg, day 26 after administration): −18.8 ± 8 %
- rate of change in body weight ([2]; 3 nmol/kg, day 27 after administration): −16.1 ± 7.6 %
- rate of change in body weight ([2]; 3 nmol/kg, day 28 after administration): −19.2 ± 8***^ %
- body weight reduced ([2]; 10 nmol/kg dose group, day 27): more than 20.0%
- rate of change in body weight ([2]; 10 nmol/kg, day 0 (before administration)): 0%
- rate of change in body weight ([2]; 10 nmol/kg, day 1 after administration): −6.2 ± 1.1%
- rate of change in body weight ([2]; 10 nmol/kg, day 2 after administration): −8.6 ± 0.9 %
- rate of change in body weight ([2]; 10 nmol/kg, day 3 after administration): −9.4 ± 1.6 %
- rate of change in body weight ([2]; 10 nmol/kg, day 4 after administration): −12.7 ± 2.4 %
- rate of change in body weight ([2]; 10 nmol/kg, day 5 after administration): −14.5 ± 3.3 %
- rate of change in body weight ([2]; 10 nmol/kg, day 6 after administration): −15 ± 5.3 %
- rate of change in body weight ([2]; 10 nmol/kg, day 7 after administration): −18.3 ± 6.3 %
- rate of change in body weight ([2]; 10 nmol/kg, day 8 after administration): −20.1 ± 8***^ %
- rate of change in body weight ([2]; 10 nmol/kg, day 9 after administration): −20.3 ± 9.3 %
- rate of change in body weight ([2]; 10 nmol/kg, day 10 after administration): −23.4 ± 9.8 %
- rate of change in body weight ([2]; 10 nmol/kg, day 11 after administration): −23.9 ± 10.7 %
- rate of change in body weight ([2]; 10 nmol/kg, day 12 after administration): −23.5 ± 11.4 %
- rate of change in body weight ([2]; 10 nmol/kg, day 13 after administration): −26.4 ± 11.8 %
- rate of change in body weight ([2]; 10 nmol/kg, day 14 after administration): −25.1 ± 12.1 %
- rate of change in body weight ([2]; 10 nmol/kg, day 15 after administration): −23.4 ± 9***^ %
- rate of change in body weight ([2]; 10 nmol/kg, day 16 after administration): −26.6 ± 9.7 %
- rate of change in body weight ([2]; 10 nmol/kg, day 17 after administration): −25.7 ± 8.7 %
- rate of change in body weight ([2]; 10 nmol/kg, day 18 after administration): −24.6 ± 8.2 %
- rate of change in body weight ([2]; 10 nmol/kg, day 19 after administration): −27.5 ± 7.6 %
- rate of change in body weight ([2]; 10 nmol/kg, day 20 after administration): −27.3 ± 7.2 %
- rate of change in body weight ([2]; 10 nmol/kg, day 21 after administration): −24.8 ± 6.7 %
- rate of change in body weight ([2]; 10 nmol/kg, day 22 after administration): −28.1 ± 7.4 %
- rate of change in body weight ([2]; 10 nmol/kg, day 23 after administration): −27.1 ± 7***^ %
- rate of change in body weight ([2]; 10 nmol/kg, day 24 after administration): −26 ± 7.1 %
- rate of change in body weight ([2]; 10 nmol/kg, day 25 after administration): −28.5 ± 8.8 %
- rate of change in body weight ([2]; 10 nmol/kg, day 26 after administration): −27.8 ± 8.3 %
- rate of change in body weight ([2]; 10 nmol/kg, day 27 after administration): −24.8 ± 8.4 %
- rate of change in body weight ([2]; 10 nmol/kg, day 28 after administration): −28.2 ± 8.3 %
- rate of change in body weight ([2]; 100 nmol/kg, day 0 (before administration)): 0%
- rate of change in body weight ([2]; 100 nmol/kg, day 1 after administration): −6.3 ± 0.5%
- rate of change in body weight ([2]; 100 nmol/kg, day 2 after administration): −10.9 ± 0.8 %
- rate of change in body weight ([2]; 100 nmol/kg, day 3 after administration): −13.2 ± 1 %
- rate of change in body weight ([2]; 100 nmol/kg, day 4 after administration): −15.7 ± 0.9 %
- rate of change in body weight ([2]; 100 nmol/kg, day 5 after administration): −19.2 ± 1.3 %
- rate of change in body weight ([2]; 100 nmol/kg, day 6 after administration): −21.8 ± 2.3 %
- rate of change in body weight ([2]; 100 nmol/kg, day 7 after administration): −24.7 ± 3.3 %
- rate of change in body weight ([2]; 100 nmol/kg, day 8 after administration): −27.6 ± 3.7 %
- rate of change in body weight ([2]; 100 nmol/kg, day 9 after administration): −29.6 ± 4.7 %
- rate of change in body weight ([2]; 100 nmol/kg, day 10 after administration): −31.6 ± 5.3 %
- rate of change in body weight ([2]; 100 nmol/kg, day 11 after administration): −33.7 ± 6.3 %
- rate of change in body weight ([2]; 100 nmol/kg, day 12 after administration): −34.4 ± 7.1 %
- rate of change in body weight ([2]; 100 nmol/kg, day 13 after administration): −35.6 ± 6.2 %
- rate of change in body weight ([2]; 100 nmol/kg, day 14 after administration): −36.7 ± 5.7 %
- rate of change in body weight ([2]; 100 nmol/kg, day 15 after administration): −35.7 ± 5.6 %
- rate of change in body weight ([2]; 100 nmol/kg, day 17 after administration): −38.2 ± 6.2 %
- rate of change in body weight ([2]; 100 nmol/kg, day 18 after administration): −37.8 ± 6.5 %
- rate of change in body weight ([2]; 100 nmol/kg, day 19 after administration): −38.5 ± 6.5 %
- rate of change in body weight ([2]; 100 nmol/kg, day 20 after administration): −39 ± 6.5 %
- rate of change in body weight ([2]; 100 nmol/kg, day 21 after administration): −37.4 ± 6.6 %
- rate of change in body weight ([2]; 100 nmol/kg, day 22 after administration): −38.3 ± 6.2 %
- rate of change in body weight ([2]; 100 nmol/kg, day 23 after administration): −38 ± 5.9 %
- rate of change in body weight ([2]; 100 nmol/kg, day 24 after administration): −36.8 ± 5.8 %
- rate of change in body weight ([2]; 100 nmol/kg, day 25 after administration): −38.6 ± 5.7 %
- rate of change in body weight ([2]; 100 nmol/kg, day 26 after administration): −38.9 ± 6 %
- rate of change in body weight ([2]; 100 nmol/kg, day 27 after administration): −36.8 ± 5.3 %
- rate of change in body weight ([2]; 100 nmol/kg, day 28 after administration): −37.9 ± 5.7 %
- body weight-reducing effect on high-fat food-induced-obesity mice ([2]; doses of 3, 10 and 100 nmol/kg): significant body weight-reducing effect
